How the values were obtained:
[1] = test system: PC-3-KLF5, PC-3-KQ, DU 145-KLF5 and DU 145-KQ cell spheroids; experiment: 3D spheroid invasion assay, KLF5^K369Q- versus KLF5-expressing cells; type: cell-based, human; conditions: 0-10 μM
Experimental: The invasion assay was performed as previously described. Briefly, PC-3-KQ cells at 80-90% confluency were plated onto 384-well round bottom plates with ultra-low attachment (Cat #: 4516, Corning) at 500 cells per well in 80 μL medium. The plates were then centrifuged at 320 g for 4 min to cluster cells in the bottom of wells and incubated for 3 days. On the fourth day, 40 μL medium was removed from each well, 40 μL of the matrigel-medium mixture was added to each well, and cells were cultured for another 3 days. The matrigel (Cat #: 354234, Corning) was from Corning, and the medium contained 1% FBS. At the end of the incubation, images were taken using a phase contrast microscope (Eclipse Ti2, Nikon, Tokyo, Japan) with 10× object lenses, and the total area of cells and the core sphere area of cells (Fig. 1a) were measured using the Image J software. The invading area was calculated using the following formula: invasion area = total area of cells – core sphere area.
Figure S2. The effect of NTZ on acetylated (KQ) and non-mutated KLF5 cell invasion. (a) The effect of NTZ on the invasion of PC-3-KLF5, PC-3-KQ, DU 145-KLF5 and DU 145-KQ cell spheroids at different concentrations (0-10 μM) and quantitative analysis (b). *, p < 0.05; ***, p < 0.001.

[2] = test system: RAW264.7 cells; experiment: CCK-8 cell viability assay; type: cell-based; conditions: concentrations smaller than 25 μM; 48 h
Experimental: According to the manufacturer's instructions, cell viability was measured using a kit from Beyotime Biotechnology. Briefly, cells were seeded onto 96-well plates at 5 × 10^3 cells per well, incubated overnight, and then treated for 48 h with drugs at 0, 0.02, 0.05, 0.14, 0.41, 1.23, 3.7, 11.1, 33.3, and 100 μM. […] At the end of drug treatment, the medium was removed, the CCK-8 solution was added into each well at 100 μL/well and incubated for 1.5 h at 37°C, and the optical density (OD) was measured at 450 nm using a microplate reader (BioTek).

[3] = test system: MMP9; experiment: MMP9 expression by western blotting and qRT-PCR; type: cell-based, human; conditions: KLF5^K369Q-expressing cells (PC-3-KQ)
Experimental: Total RNA was extracted from cells using the Eastep Super total RNA extraction kit (Cat #: LS1040, Promega, Shanghai, China) and quantified using the NanoDrop One (Thermo Fisher Scientific, Madison, USA). Single-strand cDNA was synthesized from 1 μg of total RNA using the HiScript III All-in-one RT SuperMix kit (Cat #: R333-01, Vazyme, Nanjing, China). For qRT-PCR, the cDNA template was mixed with the SYBR Green reagent in enzyme-free water, and the Qtower3 touch system (Analytik Jena, Jena, Germany) was used for PCR with the following program: initial denaturation at 95°C for 5 min, 40 cycles of 95°C for 30 s, 60°C for 30 s, and 72 °C for 30 s, and a final melting for 15 s. GAPDH was used as an internal control. […].
Cells in 6-well plates were washed with cold PBS and collected in a lysis buffer containing phosphatase and protease inhibitors (Cat #: P1045, Beyotime) to extract proteins. After centrifugation for 10 min at 4°C in a refrigerated centrifuge, the supernatant was collected and mixed with the 4× loading buffer, boiled in a metal heat bath at 100°C for 10 min, and then subjected to 10% SDS-PAGE. Proteins were transferred onto an activated PVDF membrane (0.45 μm pore-size, Cat #: IPVH00010, Millipore, Carrigtwohill, Ireland). […]

[4] = test system: PC-3-KQ-Luc cells; experiment: Bone metastasis assay, prevention mode; type: in vivo, Balb/c nude mice; conditions: 100 mg/kg intragastric every day
Source text: (§1) Male Balb/c nude mice at 3-4 weeks old were purchased from Charles River (Beijing, China). Upon arrival at the Animal Center of the Southern University of Science and Technology (SUSTech), mice were quarantined for one week before use. All mice were maintained and handled following the National Institutes of Health guide for the Care and Use of Laboratory Animals. To measure if NTZ inhibits Ac-KLF5-induced bone metastasis, we used both prevention and therapy modes. […] Then the mice were randomly divided into vehicle and NTZ groups (six mice in each group) and received treatment at day 0. The tumor growth and body weight were determined every week. After 5 weeks of treatment, all mice were sacrificed and bone tissues and major organs were resected for hematoxylin and eosin (H&E) staining. The selection of 5 weeks for investigation is based on the pilot experiment, in which clear bone metastases formed at 5 weeks after injection but no tumors were detected in other organs, including the brain, liver, lung, spleen, heart, prostate, seminal vesicle, small intestine, and testes (data not shown). Tumor growth in the bone was determined once a week by in vivo BL imaging using the Living Image Software 4.4 (IVIS Spectrum, PerkinElmer Health Sciences, Massachusetts, USA). Ten minutes after intraperitoneal injection of D-luciferin sodium salt (15 mg/mL, 10 μL/g BW) (GM-040611, Genomeditech, Shanghai, China), bioluminescence images were acquired with the following conditions: open emission filter, exposure time = 60 s, binning = medium: 8, field of view = 12.9 ×12.9 cm, and f/stop = 1. Images were then analyzed using the Living Image 4.4 software (PerkinElmer). At the end of treatment, bioluminescence intensities were measured by photon flux of the region of interest (ROI) and compared between the vehicle and NTZ treatment groups. […] CC0113, […] Biotechnology, Beijing, China) was used as vehicle control, and NTZ was solved in CMC. NTZ was delivered into mice via intragastric administration (100 mg/kg BW) every day. Femurs were decalcified in ethylenediaminetetraacetic (EDTA) decalcification solution (Cat #: R20403-5L, OKA, Beijing, China) for 14-21 days. After decalcification, bone tissues were dehydrated in gradient ethanol from 70 to 95%, soaked in n-butanol for 6 h, and then embedded in paraffin. Tissue blocks were cut into 4 μm sections. After baking in an oven at 63°C for 1.5 h, tissue slides were deparaffinized with xylene, hydrated with gradient ethanol, and then stained with H&E (Cat #: BA4025, BaSO, Zhuhai, China). Slides were then mounted for analysis with neutral resins (Cat #: 25608-33-7, Sigma-Aldrich, MO, USA).

[5] = test system: PC-3-KR-Luc cells; experiment: Bone metastasis assay, prevention mode; type: in vivo, Balb/c nude mice; conditions: 100 mg/kg intragastric every day
Source text: as §1

[6] = by inhibiting RANKL-induced osteoclastogenesis; cited from earlier work

CC(=O)Oc1ccccc1C(=O)Nc1ncc([N+](=O)[O-])s1 [Nitazoxanide]
invasion inhibition in KLF5^K369Q- versus KLF5-expressing cells [1]: more potent in invasion inhibition
cytotoxicity (cell viability) [2]: did not exhibit detectable cytotoxicity
MMP9 expression (protein and mRNA) [3]: decreased MMP9 expression in a dose-dependent manner
tumor cell area in bone sections (H&E) [4]: significantly decreased tumor cell area
bone metastasis, bioluminescence signals ([4]; day 35): dramatically reduced bone metastasis
tumor cell area in bone sections (H&E) [5]: not significantly affected
bioluminescence intensity ([5]; day 35): did not have a significant effect
bone loss in ovariectomized mice [6]: reduces bone loss

Source: article PMC9945734 (BMC Medicine, 2023)
